Entries after “also recorded” stand apart in the source; their conditions may differ. Bridge positions count the residues as written; N and C are the ends. Square brackets hold non-standard residues; d marks the D form. Peptide text beside a SMILES is read from it. R8 = C=CCCCCCC[C@@](C)(N)C(=O)O; S5 = C=CCCC[C@](C)(N)C(=O)O; Nle = CCCC[C@H](N)C(=O)O
Legend:
[1] = target: T1, UBA1 (Homo sapiens, UniProt P22314); experiment: Hydrogen-deuterium exchange mass spectrometry with E1; assay type: binding; conditions: 10 s labeling
T1 sequence (P22314 1-1058): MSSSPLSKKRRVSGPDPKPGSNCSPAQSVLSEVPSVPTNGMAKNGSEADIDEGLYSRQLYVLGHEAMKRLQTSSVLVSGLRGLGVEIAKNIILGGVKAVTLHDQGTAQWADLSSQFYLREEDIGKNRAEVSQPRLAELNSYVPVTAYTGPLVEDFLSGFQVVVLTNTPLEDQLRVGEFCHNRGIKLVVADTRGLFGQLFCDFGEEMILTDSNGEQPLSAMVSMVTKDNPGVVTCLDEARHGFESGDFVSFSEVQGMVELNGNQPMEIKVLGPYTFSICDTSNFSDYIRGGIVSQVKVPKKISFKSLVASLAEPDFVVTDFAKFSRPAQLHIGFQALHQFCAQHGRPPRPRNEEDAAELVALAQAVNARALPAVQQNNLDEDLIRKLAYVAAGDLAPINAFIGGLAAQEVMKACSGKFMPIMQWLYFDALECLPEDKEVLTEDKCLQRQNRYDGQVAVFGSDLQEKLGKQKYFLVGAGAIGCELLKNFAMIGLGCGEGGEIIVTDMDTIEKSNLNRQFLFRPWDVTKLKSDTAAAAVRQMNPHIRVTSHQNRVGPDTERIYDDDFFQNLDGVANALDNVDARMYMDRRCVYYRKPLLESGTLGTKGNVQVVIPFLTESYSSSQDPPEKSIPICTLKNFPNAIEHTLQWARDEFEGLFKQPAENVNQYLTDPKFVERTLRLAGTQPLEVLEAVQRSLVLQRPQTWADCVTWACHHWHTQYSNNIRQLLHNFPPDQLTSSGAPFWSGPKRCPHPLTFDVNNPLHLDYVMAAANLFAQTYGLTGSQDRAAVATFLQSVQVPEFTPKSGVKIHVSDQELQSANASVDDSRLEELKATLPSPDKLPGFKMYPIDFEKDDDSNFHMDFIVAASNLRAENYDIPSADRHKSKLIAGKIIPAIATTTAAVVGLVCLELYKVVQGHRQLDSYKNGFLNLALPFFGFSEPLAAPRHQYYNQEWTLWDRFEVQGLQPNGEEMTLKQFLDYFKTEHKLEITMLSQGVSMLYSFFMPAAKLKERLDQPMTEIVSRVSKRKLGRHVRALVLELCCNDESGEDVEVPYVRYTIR
Experimental: HXMS analysis: Hydrogen-deuterium exchange mass spectrometry (HXMS) experiments were performed as described (Barclay, L. A. et al. Inhibition of Pro-apoptotic BAX by a noncanonical interaction mechanism. Molecular Cell 57, 873-886, doi: 10.1016/j.molcel.2015.01.014 (2015)). SAH-UBE2A was incubated alone or with the indicated molar ratio of recombinant human UBA1, UBE2D2, or vehicle control for ten minutes on ice, in buffer containing 50 mM NaCl, 5 mM MgCl2, 500 nM ubiquitin, 20 mM ATP, 5 mM DTT, 20 mM HEPES, pH 7.4. Deuterium labeling was initiated with an 18-fold dilution into D20 buffer (20 mM HEPES, 50 mM NaCl, pD 8). After 10 s of labeling, the labeling reaction was quenched with the addition of an equal volume of quenching buffer (0.8 M guanidinium chloride, 0.8% [v/v] formic acid). Samples were then injected and peptides were trapped intact and desalted on a VanGuard Pre-Column trap (2.1 mm×5 mm, ACQUITY UPLC BEH C18, 1.7 μm) for 3 min, eluted from the trap using a 5%-35% gradient of acetonitrile over 6 minutes at a flow rate of 65 μL/min, and then separated using an ACQUITY UPLC HSS T3, 1.8 μm, 1.0 mm×50 mm column on a Waters nanoACQUITY LC. The Waters Synapt G2Si mass spectrometer was operated in ion mobility mode and data analyzed. All mass spectra were processed using DynamX 3.0 (Waters Corporation). […]

[2] = system: ubiquitin cascade E1 (UBA1), E2 (UBE2A), E3 (HDM2), substrate p53; experiment: In vitro ubiquitin pathway reconstitution assay (p53 ubiquitination); assay type: biochemical; conditions: peptide 30 μM; for ubiquitination of p53 with E2 pre-activated with Ub: pre-activated E2 instead of uncharged E2 and Ub; for ubiquitination of p53 with E1, E2, E3, Ub and ATP: unactivated E2
Experimental: In Vitro Ubiquitin Pathway Reconstitution Assay: Reactions containing recombinant His-p53 (0.1 μM), in the presence or absence of peptide (30 μM), UBA1 (0.1 μM), UBE2D (1 μM), HDM2 (1 μM), ubiquitin (1 μM) and ATP (10 mM) (all Boston Biochem K-200B), preactivated Ub-UBEA2 (3 μM) (Boston Biochem E2-802), and USP7 (1 μM) (BostonBiochem E-519), as indicated, were mixed and incubated for 2 h at 37° C. in a final volume of […] followed by denaturation by boiling in SDS-containing loading dye for 10 min at 90° C. Samples were resolved by […] gel electrophoresis and transferred to nitrocellulose membrane. Membranes were blocked with 3% milk for 1 h, incubated overnight in PBS containing 3% BSA and mouse p53 antibody (Boston Biochem K-200B) at a 1:1000 dilution, washed in PBS containing 0.1% Tween-20, and then incubated in PBS containing 3% BSA and anti-mouse secondary antibody (BioRad AAC10P) at a 1:5000 dilution for 1 hour at room temperature. Membranes were again washed in PBS containing 0.1% Tween-20 and imaged using Amersham ECL Prime (GE Life Sciences) on an Amersham Imager 680 (GE Life Sciences).

CCCC[C@H](NC(C)=O)C(=O)N[C@@H](CO)C(=O)N[C@H](C(=O)N1CCC[C@H]1C(=O)N[C@]1(C)CCCCCCC=CCCC[C@@](C)(C(=O)N[C@@H](Cc2ccccc2)C(=O)N[C@@H](CCCCN)C(=O)N[C@@H](CCCNC(=N)N)C(=O)N[C@@H](CC(C)C)C(=O)N[C@@H](CCC(N)=O)C(N)=O)NC(=O)[C@H](CCCNC(=N)N)NC(=O)[C@H](CCCC)NC(=O)[C@H](CC(C)C)NC(=O)[C@H](CCCNC(=N)N)NC(=O)[C@H](CCCNC(=N)N)NC(=O)[C@H](CCCNC(=N)N)NC1=O)[C@@H](C)O [SAH-UBE2A-11, BSTPX1RRRLBRX2FKRLQ] (Ac-[Nle]STP[R8]RRRL[Nle]R[S5]FKRLQ-NH2; staple 5-12)
protection of peptide from deuterium uptake by UBA1 [1]: dose-dependently protected SAH-UBE2A from deuterium uptake; also recorded: dose-responsively binding to E1 | ubiquitination of p53 with E2 pre-activated with Ub [2]: no effect on the ubiquitination of p53 | ubiquitination of p53 with E2 pre-activated with Ub ([2]; listed as SAH-UBE2A): circumvents the inhibitory activity of SAH-UBE2A | ubiquitination of p53 with E1, E2, E3, Ub and ATP [2]: inhibited the ubiquitination of p53 protein | ubiquitination of p53 with E1, E2, E3, Ub and ATP ([2]; listed as SAH-UBE2A): inhibits the ubiquitination of p53
